Measured values published in US9586931B2 (Merck Sharp & Dohme Corp., priority 2012, dated 2017).

The compounds below were run against T1, recombinant human GST-Syk (Homo sapiens, UniProt P43405) (assay: Homogeneous Time-Resolved Fluorescence (HTRF) assay for the recombinant human Syk enzyme). Details: recombinant human GST-Syk 5 pM, ATP 25 μM, 10-dose titration 10 μM to 0.508 nM; read-out: rhSYK Activity IC50.
T1 construct: purchased Carna Biosciences 08-176
Assay type: biochemical
Method in brief: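 GST-hSyk fusion protein phosphorylated a peptide for 45 min at room temperature. The reaction was quenched with 2 nM Eu-anti-phosphotyrosine antibody and 70 nM SA-APC in 15 mM Tris pH 7.5, 40 mM EDTA, 0.01% Tween 20. The HTRF signal was read after 30 min.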

Row | Structure (SMILES) | IC50 [nM]
1 | Cc1cc(Nc2cc(C(F)(F)F)ccn2)nc(-c2cn(C3C=CCCCC3)nn2)c1 (centres unmarked) [Example 9.2, 6-(1-cyclohept-2-en-1-yl-1H-1,2,3-triazol-4-yl)-4-methyl-N-[4-(trifluoromethyl)-pyridin-2-yl]pyridin-2-amine] | 54
2 | Cc1cc(Nc2nccc(C(F)(F)F)n2)cc(-c2cn(C3CCCCC3O)nn2)c1 (racemic) [Example 5.57, 2-[4-(3-methyl-5-{[4-(trifluoromethyl)pyrimidin-2-yl]amino}phenyl)-1H-1,2,3-triazol-1-yl]cyclohexanol] | 17
3 | Cc1cc(Nc2nccc(C(F)F)n2)cc(-c2cn(CC(C)(O)CC#N)nn2)c1 (single isomer, unassigned) [Example 27.2, 4-(4-(3-((4-(Difluoromethyl)pyrimidin-2-yl)amino)-5-methylphenyl)-1H-1,2,3-triazol-1-yl)-3-hydroxy-3-methylbutanenitrile] | 21.1
4 | Cc1cc(Nc2cc(C(F)(F)F)ccn2)nc(-c2cn(CC3(O)CCOC3)nn2)c1 (single isomer, unassigned) [Example 5.11, 3-{[4-(4-methyl-6-{[4-(trifluoromethyl)pyridin-2-yl]amino}pyridin-2-yl)-1H-1,2,3-triazol-1-yl]methyl}tetrahydrofuran-3-ol] | 21.8
5 | Cc1cc(Nc2cc(C(F)(F)F)ccn2)nc(-c2cn(CC3=CCCCC3)nn2)c1 [Example 9.6, 6-[1-(cyclohex-1-en-1-ylmethyl)-1H-1,2,3-triazol-4-yl]-4-methyl-N-[4-(trifluoromethyl)pyridin-2-yl]pyridin-2-amine] | 78.8
6 | Cc1cc(Nc2cc(C(F)(F)F)ccn2)nc(-c2cn(C(C)C(=O)NCCc3ccc4ccccc4c3)nn2)c1 (centres unmarked) [Example 1.32, 2-[4-(4-methyl-6-{[4-(trifluoromethyl)pyridin-2-yl]amino}pyridin-2-yl)-1H-1,2,3-triazol-1-yl]-N-(2-naphthalen-2-ylethyl)propanamide] | 357
7 | Cc1cc(Nc2cc(C(F)(F)F)ccn2)nc(-c2cn(C/C=C/COc3ccccc3Cl)nn2)c1 [Example 5.32, 6-{1-[(2E)-4-(2-chlorophenoxy)but-2-en-1-yl]-1H-1,2,3-triazol-4-yl}-4-methyl-N-[4-(trifluoromethyl)pyridin-2-yl]pyridin-2-amine] | 752
8 | Cc1cc(Nc2cc(C(F)(F)F)ccn2)nc(-c2cn(C(C)C(=O)N3CCc4onc(-c5ccc(F)cc5)c4C3)nn2)c1 (centres unmarked) [Example 1.39, 6-(1-{2-[3-(4-fluorophenyl)-6,7-dihydroisoxazolo[4,5-c]pyridin-5(4H)-yl]-1-methyl-2-oxoethyl}-1H-1,2,3-triazol-4-yl)-4-methyl-N-[4-(trifluoromethyl)pyridin-2-yl]pyridin-2-amine] | 367
9 | Cc1cc(Nc2ncc(F)c(C(F)F)n2)cc(-c2cn(C3CCCCC3(C)O)nn2)c1 (single isomer, unassigned) [Example 7.25, 2-[4-(3-{[4-(difluoromethyl)-5-fluoropyrimidin-2-yl]amino}-5-methylphenyl)-1H-1,2,3-triazol-1-yl]-1-methylcyclohexanol] | 38.2
10 | Cc1cc(Nc2nccc(C(F)F)n2)cc(-c2cn(CC(C)(O)C(C)(C)O)nn2)c1 (centres unmarked) [Example 21.18, 1-[4-(3-{[4-(difluoromethyl)pyrimidin-2-yl]amino}-5-methylphenyl)-1H-1,2,3-triazol-1-yl]-2,3-dimethylbutane-2,3-diol] | 38.5
11 | Cc1cc(Nc2nccc(C(F)(F)F)n2)cc(-c2cn(CC(C)(C)O)nn2)c1 [Example 5.55, 2-methyl-1-[4-(3-methyl-5-{[4-(trifluoromethyl)pyrimidin-2-yl]amino}phenyl)-1H-1,2,3-triazol-1-yl]propan-2-ol] | 23.5
12 | Cc1cc(Nc2cc(C(F)(F)F)ccn2)nc(-c2cn(CC(O)C(C)C)nn2)c1 (centres unmarked) [Example 4.24, 3-methyl-1-[4-(4-methyl-6-{[4-(trifluoromethyl)pyridin-2-yl]amino}pyridin-2-yl)-1H-1,2,3-triazol-1-yl]butan-2-ol] | 8.3
13 | Cc1cc(Nc2ncc(F)c(C(F)F)n2)cc(-c2cn(CC3OC(=O)NC3C)nn2)c1 (single isomer, unassigned) [Example 7.39, 5-{[4-(3-{[4-(difluoromethyl)-5-fluoropyrimidin-2-yl]amino}-5-methylphenyl)-1H-1,2,3-triazol-1-yl]methyl}-4-methyl-1,3-oxazolidin-2-one] | 12.3
14 | Cc1cc(Nc2nccc(C(F)(F)F)n2)cc(-n2cc(C3(O)CCC(C(N)=O)C(C)(C)C3)nn2)c1 (centres unmarked) [Example 1.58, 4-hydroxy-2,2-dimethyl-4-[1-(3-methyl-5-{[4-(trifluoromethyl)pyrimidin-2-yl]amino}phenyl)-1H-1,2,3-triazol-4-yl]cyclohexanecarboxamide] | 29.7
15 | Cc1cc(Nc2nccc(C(F)(F)F)n2)cc(-n2cc(C3(O)CCC4(CC3)OCCO4)nn2)c1 [Example 15, 8-[1-(3-Methyl-5-{[4-(trifluoromethyl)pyrimidin-2-yl]amino}phenyl)-1H-1,2,3-triazol-4-yl]-1,4-dioxaspiro[4.5]decan-8-ol] | 94.7
16 | Cc1cc(Nc2nccc(C)n2)cc(-c2cn(C3CCCCC3O)nn2)c1 (single isomer, unassigned) [Example 7.22, 2-(4-{3-methyl-5-[(4-methylpyrimidin-2-yl)amino]phenyl}-1H-1,2,3-triazol-1-yl)cyclohexanol] | 56
17 | Cc1cc(Nc2nccc(C(F)(F)F)n2)cc(-n2cc([C@@]3(O)CC[C@H](C(=O)O)C(C)(C)C3)nn2)c1 [Example 15.9, (1S,4R)-4-hydroxy-2,2-dimethyl-4-[1-(3-methyl-5-{[4-(trifluoromethyl)pyrimidin-2-yl]amino}phenyl)-1H-1,2,3-triazol-4-yl]cyclohexanecarboxylic acid] | 8.1
18 | Cc1cc(Nc2cc(C(F)(F)F)ccn2)nc(-c2cn(C3CCC(C(N)=O)C(C)(C)C3)nn2)c1 (single isomer, unassigned) [Example 1.6, 2,2-dimethyl-4-[4-(4-methyl-6-{[4-(trifluoromethyl)pyridin-2-yl]amino}pyridin-2-yl)-1H-1,2,3-triazol-1-yl]cyclohexanecarboxamide] | 26.6
19 | Cc1cc(Nc2cc(C(F)(F)F)ccn2)nc(-c2cn(C(C)C(=O)NCCc3ccc(Oc4ccccc4)cc3)nn2)c1 (centres unmarked) [Example 1.46, 2-[4-(4-methyl-6-{[4-(trifluoromethyl)pyridin-2-yl]amino}pyridin-2-yl)-1H-1,2,3-triazol-1-yl]-N-[2-(4-phenoxyphenyl)ethyl]propanamide] | 1400
20 | Cc1cc(Nc2nccc(C(F)(F)F)n2)cc(-c2cn(CC3(O)CCC(C(=O)O)C(C)(C)C3)nn2)c1 (single isomer, unassigned) [Example 3.2, (R or S) 4-hydroxy-2,2-dimethyl-4-{[4-(3-methyl-5-{[4-(trifluoromethyl)pyrimidin-2-yl]amino}phenyl)-1H-1,2,3-triazol-1-yl]methyl}cyclohexanecarboxylic acid] | 46.8
21 | Cc1cc(Nc2cc(C(F)(F)F)ccn2)nc(-c2cn(C(C)C(=O)N3CCc4ccccc4C3)nn2)c1 (centres unmarked) [Example 1.28, 6-{1-[2-(3,4-dihydroisoquinolin-2(1H)-yl)-1-methyl-2-oxoethyl]-1H-1,2,3-triazol-4-yl}-4-methyl-N-[4-(trifluoromethyl)pyridin-2-yl]pyridin-2-amine] | 645
22 | COC(=O)C1CCC(O)(Cn2cc(-c3cc(C)cc(Nc4cc(C(F)(F)F)ccn4)n3)nn2)CC1(C)C (centres unmarked) [Example 4.12, methyl 4-hydroxy-2,2-dimethyl-4-{[4-(4-methyl-6-{[4-(trifluoromethyl)pyridin-2-yl]amino}pyridin-2-yl)-1H-1,2,3-triazol-1-yl]methyl}cyclohexanecarboxylate] | 145
23 | Cc1cc(Nc2cc(C(F)(F)F)ccn2)nc(-c2cn(C(C)C(=O)NC(C)c3cnn(-c4ccccc4F)c3)nn2)c1 (centres unmarked) [Example 1.35, N-{1-[1-(2-fluorophenyl)-1H-pyrazol-4-yl]ethyl}-2-[4-(4-methyl-6-{[4-(trifluoromethyl)pyridin-2-yl]amino}pyridin-2-yl)-1H-1,2,3-triazol-1-yl]propanamide] | 171
24 | Cc1cc(Nc2cc(C(F)(F)F)ccn2)nc(-c2cn(Cc3ccc(C(=O)O)cc3)nn2)c1 [Example 5.42, 4-{[4-(4-methyl-6-{[4-(trifluoromethyl)pyridin-2-yl]amino}pyridin-2-yl)-1H-1,2,3-triazol-1-yl]methyl}benzoic acid] | 3.3
25 | Cc1cc(Nc2cc(C(F)(F)F)ccn2)nc(-c2cn(C3CCCCC(O)C3O)nn2)c1 (single isomer, unassigned) [Example 10.2, 3-[4-(4-methyl-6-{[4-(trifluoromethyl)pyridin-2-yl]amino}pyridin-2-yl)-1H-1,2,3-triazol-1-yl]cycloheptane-1,2-diol] | 17.7
26 | Cc1cc(Nc2nccc(C(F)(F)F)n2)cc(-c2cn(C[C@@H](C)CO)nn2)c1 [Example 5.73, (2R)-2-methyl-3-[4-(3-methyl-5-{[4-(trifluoromethyl)pyrimidin-2-yl]amino}phenyl)-1H-1,2,3-triazol-1-yl]propan-1-ol] | 39.2
27 | Cc1cc(Nc2ncc(F)c(C(F)F)n2)cc(-c2cn(CC3CNC(=O)O3)nn2)c1 (centres unmarked) [Example 7.36, 5-{[4-(3-{[4-(difluoromethyl)-5-fluoropyrimidin-2-yl]amino}-5-methylphenyl)-1H-1,2,3-triazol-1-yl]methyl}-1,3-oxazolidin-2-one] | 16.2
28 | Cc1cc(Nc2nccc(C(F)(F)F)n2)cc(-c2cn(CC(=O)N3[C@@H](C)COC[C@@H]3C)nn2)c1 (relative stereo) [Example 5.47, N-[3-(1-{2-[trans-3,5-dimethylmorpholin-4-yl]-2-oxoethyl}-1H-1,2,3-triazol-4-yl)-5-methylphenyl]-4-(trifluoromethyl)pyrimidin-2-amine] | 80.2
29 | CCOC(=O)C1(n2cc(-c3cc(C)cc(Nc4cc(C(F)(F)F)ccn4)n3)nn2)CCC1 [Example 8.2, ethyl 1-[4-(4-methyl-6-{[4-(trifluoromethyl)-pyridin-2-yl]amino}-pyridin-2-yl)-1H-1,2,3-triazol-1-yl]cyclobutane-carboxylate] | 71.8
